Data set [1] deals with MCF7. Put plainly: Antiproliferative activity against human MCF7 cells assessed as reduction in cell viability incubated for 48 hrs by MTT assay. The class given is functional, cell-based. The settings on record: MCF7, 48 h. For orientation: Formazan colour is commonly taken as a measure of viable cells.
In a further data set the test system is HeLa. Put plainly: Antiproliferative activity against human HeLa cells for 24 hrs by MTT assay. The format is functional, cell-based.
Data set [2] has as its target Epidermal growth factor receptor (Homo sapiens, UniProt P00533). Put plainly: Inhibition of EGFR (unknown origin) assessed as kinase activity by measuring ATP remaining for 40 mins in presence of ATP by Kinase-Glo Plus luminescence kinase assay. In general terms: Kinase-Glo reads ATP consumption through a luciferase reaction.
The test system of data set [3] is MDA-MB-231. Put plainly: Antiproliferative activity against human MDA-MB-231 cells assessed as reduction in cell viability for 48 hrs by MTT assay. The class given is functional, cell-based. The settings on record: MDA-MB-231, 48 h.
Another data set relates to HEK-293T. The data set is described as follows: Antiproliferative activity against human HEK293T cells assessed as reduction in cell viability for 48 hrs by MTT assay. The class given is functional, cell-based.
A short description of data set [4]: Antiproliferative activity against human H357 cells assessed as reduction in cell viability for 48 hrs by MTT assay. The class given is functional, cell-based. To be noted: H357, 48 h.
Data set [5] in a line: Cytotoxicity against human MCF-10A cells assessed as reduction in cell viability for 48 hrs by MTT assay. The format is toxicity, cell-based.
Data set [6] concerns MCF7. The data set is described as follows: Induction of apoptosis in human MCF7 cells assessed as increase in number of apoptotic nuclei at 4.2 to 5.5 uM for 48 hrs by DAPI staining based fluorescence microscopy. The class given is functional, cell-based. To be noted: dose 4.2-5.5 µM.
The subject of data set [7] is MCF7. Put plainly: Induction of cell cycle arrest in human MCF7 cells assessed as accumulation at Sub-G1 phase at 4.2 uM for 48 hrs by PI staining based flow cytometry (Rvb= 0.9%). The class given is functional. In general terms: Flow cytometry measures light scatter and fluorescence of single cells or particles in a stream.
Data set [8] concerns MCF7. Put plainly: Induction of cell cycle arrest in human MCF7 cells assessed as accumulation at G1 phase at 4.2 uM for 48 hrs by PI staining based flow cytometry (Rvb= 73.1%). The format is functional.
The subject of data set [9] is MCF7. Put plainly: Induction of cell cycle arrest in human MCF7 cells assessed as accumulation at S phase at 4.2 uM for 48 hrs by PI staining based flow cytometry(Rvb= 4.6%). The format is functional.
For data set [10], the system named is MCF7. Put plainly: Induction of cell cycle arrest in human MCF7 cells assessed as accumulation at G2/M phase at 4.2 uM for 48 hrs by PI staining based flow cytometry (Rvb= 21.4%). The class given is functional.
The subject of data set [11] is MCF7. Put plainly: Induction of apoptosis in human MCF7 cells assessed as fold change as decrease in BCL-XL protein expression level at 4.2 uM by Western blot analysis. The class given is functional.
Data set [12] deals with MCF7. Put plainly: Induction of apoptosis in human MCF7 cells assessed as fold change as increase in Bax protein expression level at 4.2 uM by Western blot analysis. The class given is functional.
Data set [13] has as its system MCF7. Put plainly: Induction of apoptosis in human MCF7 cells assessed as fold change as decrease in BCL-XL protein expression level at 5.5 uM by Western blot analysis. The class given is functional.
Data set [14] deals with MCF7. The data set is described as follows: Induction of apoptosis in human MCF7 cells assessed as fold change as increase in Bax protein expression level at 5.5 uM by Western blot analysis. The format is functional.
The subject of data set [15] is MCF7. Put plainly: Induction of apoptosis in human MCF7 cells assessed as upregulation of Caspase-3 expression level at 4.2 to 5.5 uM by TRIT-C staining based fluorescence microscopy. The class given is functional, cell-based. To be noted: dose 4.2-5.5 µM.
Data set [16] relates to MCF7. The data set is described as follows: Inhibition of human DNA topoisomerase activity in human MCF cells nuclear lysate assessed mediated supercoiled plasmid DNA relaxation by analyzing migration of supercoiled DNA at 0.9 uM by agarose gel electrophoresis. The format is subcellular.
The test system of data set [17] is MCF7. Put plainly: Inhibition of human DNA topoisomerase activity in human MCF cells nuclear lysate assessed mediated supercoiled plasmid DNA relaxation by analyzing migration of supercoiled DNA at 0.5 uM by agarose gel electrophoresis. The format is subcellular.
Data set [18] can be described thus: Antiproliferative activity against VEGF-stimulated human Endothelial cells pre-incubated for 2 hrs followed by stimulation with human VEGF, bFGF and FBS for 18 hrs and measured after 28 hrs by AlamarBlue assay. The format is functional, cell-based. The settings on record: Endothelial cell.
Data set [19] deals with MCF7. Put plainly: Induction of apoptosis in human MCF7 cells assessed as increase in number of apoptotic nuclei at 3.8 to 5 uM for 48 hrs by DAPI staining based fluorescence microscopy. The settings on record: dose 3.8-5 µM. The format is functional, cell-based.
Data set [20] relates to MCF7. The data set is described as follows: Induction of cell cycle arrest in human MCF7 cells assessed as accumulation at Sub-G1 phase at 3.8 uM for 48 hrs by PI staining based flow cytometry (Rvb= 0.9%). The class given is functional.
For data set [21], the system named is MCF7. The data set is described as follows: Induction of cell cycle arrest in human MCF7 cells assessed as accumulation at G1 phase at 3.8 uM for 48 hrs by PI staining based flow cytometry (Rvb= 73.1%). The format is functional.
Data set [22] has as its system MCF7. The data set is described as follows: Induction of cell cycle arrest in human MCF7 cells assessed as accumulation at S phase at 3.8 uM for 48 hrs by PI staining based flow cytometry (Rvb=4.6%). The class given is functional.
Data set [23] deals with MCF7. Put plainly: Induction of cell cycle arrest in human MCF7 cells assessed as accumulation at G2/M phase at 3.8 uM for 48 hrs by PI staining based flow cytometry (Rvb= 21.4%). The format is functional.
The subject of data set [24] is MCF7. Put plainly: Induction of apoptosis in human MCF7 cells assessed as fold change as decrease in BCL-XL protein expression level at 3.8 uM by Western blot analysis. The class given is functional.
For data set [25], the system named is MCF7. Put plainly: Induction of apoptosis in human MCF7 cells assessed as fold change as increase in Bax protein expression level at 3.8 uM by Western blot analysis. The class given is functional.
Data set [26] has as its system MCF7. Put plainly: Induction of apoptosis in human MCF7 cells assessed as fold change as decrease in BCL-XL protein expression level at 5 uM by Western blot analysis. The class given is functional.
In data set [27] the test system is MCF7. The data set is described as follows: Induction of apoptosis in human MCF7 cells assessed as fold change as increase in Bax protein expression level at 5 uM by Western blot analysis. The format is functional.
The subject of data set [28] is MCF7. Put plainly: Induction of apoptosis in human MCF7 cells assessed as upregulation of Caspase-3 expression level at 3.8 to 5 uM by TRIT-C staining based fluorescence microscopy. The class given is functional, cell-based. The settings on record: dose 3.8-5 µM.
Data set [29] deals with MCF7. Put plainly: Inhibition of human DNA topoisomerase activity in human MCF cells nuclear lysate assessed mediated supercoiled plasmid DNA relaxation by analyzing migration of supercoiled DNA at 1 uM by agarose gel electrophoresis. The class given is subcellular.
Data set [30] relates to MDA-MB-231. The data set is described as follows: Antiproliferative activity against human MDA-MB-231 cells for 48 hrs by MTT assay. The class given is functional, cell-based. To be noted: MDA-MB-231, 48 h.

Activity calls are given as the source filed them. The calls are words filed in the database; no cut-off is given here.

Sequence of Epidermal growth factor receptor (P00533 whole entry): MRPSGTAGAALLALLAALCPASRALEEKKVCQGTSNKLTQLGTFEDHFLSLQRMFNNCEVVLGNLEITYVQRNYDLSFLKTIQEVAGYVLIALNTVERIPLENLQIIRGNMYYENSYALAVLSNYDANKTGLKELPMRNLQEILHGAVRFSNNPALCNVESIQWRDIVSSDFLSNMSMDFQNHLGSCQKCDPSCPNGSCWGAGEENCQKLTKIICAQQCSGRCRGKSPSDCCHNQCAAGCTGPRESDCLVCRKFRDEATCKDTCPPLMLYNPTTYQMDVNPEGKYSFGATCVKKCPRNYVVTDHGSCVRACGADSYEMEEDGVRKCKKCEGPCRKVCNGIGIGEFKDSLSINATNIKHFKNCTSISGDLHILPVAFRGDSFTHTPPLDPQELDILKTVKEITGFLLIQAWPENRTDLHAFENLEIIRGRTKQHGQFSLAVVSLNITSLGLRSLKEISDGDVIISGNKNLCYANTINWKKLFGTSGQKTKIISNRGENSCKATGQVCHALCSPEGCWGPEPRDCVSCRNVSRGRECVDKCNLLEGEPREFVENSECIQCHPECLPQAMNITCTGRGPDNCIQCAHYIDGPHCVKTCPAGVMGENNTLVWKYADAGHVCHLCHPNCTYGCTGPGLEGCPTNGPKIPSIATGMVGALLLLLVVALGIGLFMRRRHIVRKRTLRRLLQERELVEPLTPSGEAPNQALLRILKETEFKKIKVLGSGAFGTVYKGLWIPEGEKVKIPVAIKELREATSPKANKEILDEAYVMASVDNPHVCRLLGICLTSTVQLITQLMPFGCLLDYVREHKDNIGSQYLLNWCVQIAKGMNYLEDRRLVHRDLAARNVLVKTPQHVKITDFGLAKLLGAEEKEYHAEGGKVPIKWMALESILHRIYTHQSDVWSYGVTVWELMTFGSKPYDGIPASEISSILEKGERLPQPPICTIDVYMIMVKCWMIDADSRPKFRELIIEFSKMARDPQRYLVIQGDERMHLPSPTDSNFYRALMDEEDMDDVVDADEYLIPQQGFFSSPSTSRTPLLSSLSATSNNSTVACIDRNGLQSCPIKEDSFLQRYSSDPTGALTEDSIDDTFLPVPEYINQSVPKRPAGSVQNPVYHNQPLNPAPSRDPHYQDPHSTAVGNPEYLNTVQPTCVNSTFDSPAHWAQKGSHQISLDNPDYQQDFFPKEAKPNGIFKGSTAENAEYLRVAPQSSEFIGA

As for `CC1=CN2C(=O)/C(=C/c3ccccc3)N=C2C=C1`, in the data set with MCF7 [1], the IC50 turned out to be 10 µM.
On the same count and under the same terms, with `O=C1/C(=C/c2ccccc2)N=C2C=CC([N+](=O)[O-])=CN12` the figure was 9 µM; with `CCOC(=O)Oc1c(OC)cc(/C=C2\N=C3C=C(OC)C=CN3C2=O)cc1OC`, 8.9 µM.
`O=C(Cc1csc2nc3ccccc3n12)Nc1cccc2ccccc12`: the IC50 with HeLa came out at 0.42 µM; in [2], 55 µM.
As to `COc1ccc(/C=C2\N=C3Sc4cccc(O)c4N3C2=O)cc1`, the IC50 with MCF7 [1] was 7.5 µM.
Turning to `O=C1/C(=C/c2ccc(Cl)cc2)N=C2Sc3cccc(O)c3N12`, the IC50 with MCF7 [1] worked out at 4.2 µM; with MDA-MB-231 [3] it was 5.4 µM; in the data set on HEK-293T it was 5.8 µM; in data set [4], 5 µM. The half-maximal inhibitory concentration (IC50) at 48 h in [5] stood at 40 µM. Besides, the outcome in the data set on MCF7 [6] and in the data set on MCF7 [15] was Active. Moreover, the Activity in the data set on MCF7 [7] stood at 4.3%; in the data set with MCF7 [8], 61.3%; in the data set with MCF7 [9], 24.8%; in the data set with MCF7 [10], 9.6%. Moreover, the “fold change (FC)” value in the data set with MCF7 [11] is reported as 2.5; in the data set on MCF7 [12], 3.5; in the data set on MCF7 [13] it was 10; in the data set with MCF7 [14], 6. In addition, the inhibition entry in the data set with MCF7 [16] was “Active”.
With `O=C1/C(=C/c2ccccc2)N=C2Sc3ccccc3N12`, the IC50 with MCF7 [1] was found to be 9.4 µM.
`COc1cc([C@@H]2c3cc4c(cc3[C@@H](O[C@@H]3O[C@@H]5CO[C@@H](C)O[C@H]5[C@H](O)[C@H]3O)[C@H]3COC(=O)[C@H]23)OCO4)cc(OC)c1O` [ETOPOSIDE]: the IC50 was 28 µM in the data set with HEK-293T and 32 µM in [4]. The half-maximal inhibitory concentration (IC50) at 48 h in data set [5] was found to be 102 µM. The inhibition result with MCF7 [17] is “Active”.
In the case of `O=C1/C(=C/c2ccccc2)N=C2C=CC=CN12`, the half-inhibitory concentration (IC50) in the data set on MCF7 [1] turned out to be 9.8 µM.
On to `COc1ccc(/C=C2\N=C3Sc4cccc(OC)c4N3C2=O)cc1`, for which the IC50 with MCF7 [1] was determined as 7.8 µM.
Same read-out and setting: under `O=C1/C(=C/c2ccccc2)N=C2Sc3cc(Br)ccc3N12` stands 9.7 µM; under `Cc1cccc2c1N1C(=O)/C(=C/c3ccccc3)N=C1S2`, 9.8 µM; under `O=C1/C(=C/c2ccccc2)N=C2N=CC=CN12`, 9.9 µM.
Still for that read-out and setting: with `O=C1/C(=C/c2ccccc2)N=C2C([N+](=O)[O-])=CC(Br)=CN12` the figure was 10 µM.
Consider `CCN(CC)CCOc1cccc(-c2cn3c(n2)sc2ccccc23)c1`, for which half-maximal inhibition in [18] (IC50) required 0.0039 µM.
Take `COC1=CC2=N/C(=C\c3cc(OC)c(OC)c(OC)c3)C(=O)N2C=C1`: in the data set on MCF7 [1], the half-maximal inhibitory concentration (IC50) was 10 µM.
The same measure, in the same setting: with `O=C1/C(=C/c2ccccc2)N=C2C(Br)=CC(Br)=CN12` the figure was 10 µM.
On the same count and under the same terms, with `O=C1/C(=C/c2ccc(Cl)cc2)N=C2C(O)=CC=CN12` the figure was 5.2 µM.
For the compound `O=C1/C(=C/c2ccccc2)N=C2Sc3cccc(O)c3N12`, the IC50 in the data set on MCF7 [1] is 3.8 µM; in the data set on MDA-MB-231 [3] it was 4 µM; in the data set on HEK-293T, 4.2 µM; in data set [4], 4.8 µM. For the same compound, the half-maximal inhibitory concentration (IC50) at 48 h in data set [5] came out at 35 µM. Also, the result in the data set with MCF7 [19] and in the data set with MCF7 [28] was Active. Moreover, the Activity in the data set with MCF7 [20] is 8.9%; in the data set with MCF7 [21], 37.5%; in the data set with MCF7 [22], 36.4%; in the data set on MCF7 [23], 17.2%. Also, the “fold change (FC)” value in the data set on MCF7 [24] is 2; in the data set on MCF7 [25] it was 2; in the data set with MCF7 [26], 10; in the data set with MCF7 [27], 5. In addition, the inhibition entry in the data set with MCF7 [29] is “Active”.
Consider `CC1=CC=CN2C(=O)/C(=C/c3ccccc3)N=C12`, for which, in the data set on MCF7 [1], the concentration for half-maximal inhibition (IC50) amounted to 9.8 µM.
As for `COc1cccc2c1N1C(=O)/C(=C/c3ccccc3)N=C1S2`, the IC50 in the data set on MCF7 [1] turned out to be 4.5 µM.
Still for that read-out and setting: with `O=C1/C(=C/c2ccccc2)N=C2C(O)=CC=CN12` the figure was 9.7 µM.
With `O=C(Cc1csc2nc3ccccc3n12)Nc1cccc(O)c1`, the figures for the IC50 (with HeLa; in [2]) were 0.42 µM and 55 µM, respectively.
On to `COc1ccc(/C=C2\N=C3C(O)=CC=CN3C2=O)cc1`, for which, in the data set with MCF7 [1], the IC50 is 10 µM.
Same read-out and setting: under `COC1=CC(OC)=NC2=N/C(=C\c3ccccc3)C(=O)N12` stands 9.7 µM.
In turn, `COc1ccc2c(c1)sc1nc(/C=C/C(=O)c3ccc(OC)c(O)c3)cn12` had a 50% inhibitory concentration (IC50) in the data set on MDA-MB-231 [30] of 1.2 µM.
With `COc1ccc2c(c1)SC1=N/C(=C\c3ccccc3)C(=O)N12`, the half-inhibitory concentration (IC50) in the data set on MCF7 [1] was found to be 10 µM.
On the same count and under the same terms, with `O=C1/C(=C/c2ccccc2)N=C2C=C(O)C=CN12` the figure was 9.2 µM; with `COC1=CC2=N/C(=C\c3ccc(OC)cc3)C(=O)N2C=C1`, 9.8 µM; with `COC1=CC2=N/C(=C\c3ccccc3)C(=O)N2C=C1`, 9.9 µM.

A word on the IC50: it is the concentration needed to halve the response being measured.

These data come from ChEMBL document CHEMBL5126578, “Organocatalyzed umpolung addition for synthesis of heterocyclic-fused arylidene-imidazolones as anticancer agents” (Bioorg Med Chem, 2022).
